Experimental data published in paper PMC6383986, “Fragment-Based Covalent Ligand Screening Enables Rapid Discovery of Inhibitors for the RBR E3 Ubiquitin Ligase HOIP” (Journal of the American Chemical Society, 2019).
Entries after “also recorded” stand apart in the source; their conditions may differ.

Columns and labels:
HOIP RBR domain [1] = target: T1, HOIP RBR domain (Homo sapiens, UniProt Q96EP0); assay: Protein LC-MS compound screening of analogs; assay type: binding; settings: 2 μM protein, 0.5, 4, 24 h; for labeling of HOIP RBR domain relative to hit (5): 20 μM compound (10-fold excess)
T1 construct: made in house; host or cells: E. coli BL21-GOLD(DE3)
T1 sequence (Q96EP0 697-1072): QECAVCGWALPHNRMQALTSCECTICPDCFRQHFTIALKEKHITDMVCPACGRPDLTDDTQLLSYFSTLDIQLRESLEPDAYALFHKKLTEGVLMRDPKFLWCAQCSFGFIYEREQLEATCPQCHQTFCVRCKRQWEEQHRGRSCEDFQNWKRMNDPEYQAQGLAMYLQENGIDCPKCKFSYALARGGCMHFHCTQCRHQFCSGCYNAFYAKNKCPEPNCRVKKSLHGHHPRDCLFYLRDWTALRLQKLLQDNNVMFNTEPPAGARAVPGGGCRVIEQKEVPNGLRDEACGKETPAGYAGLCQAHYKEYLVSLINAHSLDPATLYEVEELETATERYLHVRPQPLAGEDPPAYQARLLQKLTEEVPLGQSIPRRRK
Protocol: of (1) and 3 mM stock solution of (5) in DMSO, giving a final concentration of 6 and 30 µM respectively, and 1% DMSO).
The UbcH5c and UbcH7 E2 enzymes were diluted with buffer to afford new stock solutions at 10 µM, of which 25 µL was used for each sample (final concentration 5 µM, 85-91 µg/mL), together with 24.5 µL buffer and 0.5 µL compound solution (1 mM stock solution of (1) and 5 mM stock solution of (5) in DMSO, giving a final concentration of 10 and 50 µM respectively, and 1% DMSO).
The E1 enzyme was diluted with buffer to afford a new stock solution at 2 µM, of which 25 µL was used for each sample (final concentration 1 µM, 120 µg/mL), together with 24.5 µL buffer and 0.5 µL compound solution (200 µM stock solution of (1) and 1 mM stock solution of (5) in DMSO, giving a final concentration of 2 and 10 µM respectively, and 1% DMSO).
Protocol as described above, using the HOIP RBR (stock solutions around 300 µM) in buffer (50 mM HEPES, 150 mM NaCl, pH 7.5) to afford a new stock solution at 4 µM of which 25 µL was used for each sample (final concentration 2 µM, 87 µg/mL), together with 24.5 µL buffer and 0.5 µL compound solution (2 mM stock solutions in DMSO, giving a final concentration of 20 µM, and 1% DMSO). The samples were analyzed after 0.5, 4, and 24 h incubation.
Supplementary Figure S7. TIC traces of deconvoluted protein masses from the screening of analogues to hit compound (5). The HOIP RBR (2 µM; MW = 43398 g/mol) was incubated with […]
compound (17) and aliquots were analyzed after 0.5, 4, and 24 h incubation. The data was used for the generation of the heat map in Figure 5A.
(1 picture or pasted object on this page, not shown here)

HOIP RBR domain [2] = target: T1, HOIP RBR domain; assay: In vitro polyubiquitination assay; assay type: biochemical; settings: HOIP RBR preincubated with compound (200 μM) overnight; E2 UbcH7 or UbcH5c; vs DMSO
Protocol: 4.3 Polyubiquitination assay
The ubiquitination assay was essentially carried out as previously described.12 The HOIP RBR domain was pre-incubated with compounds (5) or (6), or DMSO in 50 mM HEPES, 150 mM NaCl, pH 7.5 buffer at 23 °C with gentle shaking for overnight (20-24 h). E1, E2 (UbcH7 or UbcH5c), ubiquitin, and MgCl2 were added to each vial, and aliquots of 15 µL were withdrawn to mark time zero. ATP was then added and aliquots of 15 µL were withdrawn after 5, 15, 30, and 60 min incubation. Final concentrations: E1 (1 µM), E2 (5 µM), E3 (5 µM), compounds (200 µM), DMSO (1%), ubiquitin (40 µM), MgCl2 (20 mM), ATP (10 mM); reaction volume 100 µL. The aliquots were analyzed by SDS PAGE (Figure 4A and Supplementary Figure S9) as described below (section

[3] = test system: NF-κB activation in HEK293T cells overexpressing full length HOIP, HOIL-1L, and SHARPIN; assay: NF-κB Luciferase reporter assay; assay type: cell-based; settings: overnight (17 h) treatment
Protocol: suspensions were agitated at 4 °C overnight. The supernatants were removed and kept on ice, and the beads were washed with wash buffer (2 × 0.5 mL), PBS (2 × 0.5 mL), and 50 mM HEPES, 150 mM NaCl, pH 7.5 buffer (2 × 0.5 mL).
A polyubiquitination assay master mix was prepared by mixing E1, UbcH7, ubiquitin, MgCl2, in buffer (50 mM HEPES, 150 mM NaCl, pH 7.5). The solution (30 µL per sample) was added to the beads, and lastly ATP (0.6 µL of 100 mM stock) was added to initiate the reaction. Final concentrations were E1 (0.2 µM), UbcH7 E2 (1 µM), ubiquitin (10 µM), MgCl2 (4 mM), ATP (2 mM). The vials were incubated (Eppendorf Thermomixer) at 25 °C, 900 rpm for 1.5 h. […] All samples were analyzed by SDS PAGE and Western Blot (Figure 6C and Supplementary Figure S13) as described in sections 4.5 and 4.6. […]
(§1) Reporter assays: After incubating the plates for 17 h, Firefly and Renilla Luciferase activity was analyzed using the Dual-Luciferase® Reporter Assay System (Promega) and a BertholdTech […]
(§2) with Mikrowin 2000 software version 4.41: using its injectors to inject 100 µL LAR II and 100 µL Stop&Glo (see manufacturer’s instructions; Promega #E1960). NF-κB regulated luciferase activity was first normalized to Renilla luciferase activity and then the fold activation relative to cells transfected with empty vector calculated. […]
reader. […]

[4] = test system: HEK293T cells overexpressing full-length HOIP, HOIL-1L, and SHARPIN; assay: CellTiter-Glo Luminescent cell viability assay, transfected cells; assay type: cell-based; settings: 17 h
Protocol: Thurston, Imperial College London. 2.3 × 10^6 cells were seeded into 100 mm Petri dishes in DMEM media supplemented with 10% v/v FBS (Biosera) and 1% v/v L-glutamine/penicillin/streptomycin (Sigma-Aldrich) and incubated at 37 °C overnight. The following morning the cells were transfected using either 6 µg pcDNA3 or 4.5 µg HOIP, 0.3 µg HOIL-1L and 1.2 µg SHARPIN as well as 450 ng pRDII Luc and 180 ng pRLTK (Promega) plasmids. 7 h after transfection, the cells were trypsinized and re-suspended in DMEM media supplemented with 1% v/v FBS (Biosera) and 1% v/v L-glutamine/penicillin/streptomycin (Sigma-Aldrich). […]
as §1, §2
Cell viability assays: After incubating the plates for 17 h in the presence of compound, cell viability was determined using the CellTiter-Glo® Luminescent Cell Viability Assay according to manufacturer’s instructions (Promega #G7571). […]

Compound | labeling of HOIP RBR domain relative to hit (5) (HOIP RBR domain [1]) | other results
COC(=O)CCCNC(=O)c1cc2c([nH]c1=O)CCC2 [Compound 6] | abolished activity | polyubiquitin chain formation (HOIP RBR domain [2]): no inhibitory effect; also recorded: no effect on catalytic activity
COC(=O)/C=C/CCNC(=O)c1cc2c([nH]c1=O)CCC2 [Compound 9] | significantly lower activity | –
COC(=O)/C=C/CNC(C)=O [Compound 10] | significantly lower activity | –
COC(=O)/C=C/CNC(=O)c1ccc(-c2ccccc2)[nH]c1=O [Compound 11i] | inactive | –
COC(=O)CCCNC(=O)c1cc2c([nH]c1=O)CCCC2 [Compound 17] | – | labeling of HOIP RBR domain (HOIP RBR domain [1]; 200 μM compound): abolished activity; effect on NF-κB activity [3]: no effect on NF-κB activity; effect on cell viability [4]: neither compound had any effect on cell viability
